Article PMC12610274, “Identification of Marrubiin as a Cathepsin C Inhibitor for Treating Rheumatoid Arthritis” (Molecules, 2025)

What was measured:
[1] = Cytotoxicity assay, RAW264.7 cell line; format: cell-based; details: mouse, RAW264.7 cells
Protocol: RAW264.7 cells and U937 cells in the logarithmic growth phase were counted and diluted, and the concentrations of the single-cell suspensions of the two types of cells were adjusted to 5 × 10^4 cells/mL and 3 × 10^4 cells/mL, respectively. After thorough mixing, the cells were seeded into a 96-well plate, with 100 μL of cell suspension added to each well. Prepare the working solution of test compounds using the corresponding medium as the solvent, with the concentration of working solution being 2 times the final test concentration (2.5 μM, 5 μM, 10 μM, 20 μM, and 40 μM). Twenty-four hours after cell seeding, the compound working solutions were added to the compound test wells, and the same volume of medium was added to the negative control wells, followed by continuous incubation for another 24 h. Only the wells with the same volume but without cells served as the blank control group. The CellTiter-Lumi™ luminescent cell viability assay kit (Beyotime Biotechnology, Shanghai, China, C0065XL) was used to detect cell viability according to the standard operating procedures. Each group of tests was independently repeated at least 3 times, and IC50 values were calculated using SPSS 10.0.

Dipeptidyl Peptidase 8 = Dipeptidyl Peptidase 8 (Homo sapiens, UniProt Q6V1X1); test: Recombinant dipeptidyl peptidases isolated enzyme assay, DPP8; format: biochemical; details: read-out: Dipeptidyl Peptidase 8 Enz (IC50: μM)
Source text: Table 3 Inhibitory effects of marrubiin on dipeptidyl peptidase. | column: Dipeptidyl Peptidase 8 Enz (IC50: μM)

Cat G [2] = test: NSPs activity in U937 cells after 5 days of treatment, Cat G; format: cell-based, human; details: U937, 10 μM
Protocol: (§1) U937 cells in the logarithmic growth phase were collected and equally divided into six portions. Four of these portions were treated with DMSO solutions of the test compound at varying concentrations to achieve final concentrations of 1.25, 2.5, 5, and 10 μM, respectively. An equal volume of DMSO was added to one portion as a blank control, while another portion treated with a DMSO solution of AZD7986 served as a positive control. The cells were cultured under standard U937 conditions for 5 consecutive days, with daily medium changes and fresh compound treatments administered using the same protocol. Following 5 days of treatment, cells were harvested, washed twice thoroughly with phosphate-buffered saline, and lysed in phosphate-buffered saline containing 1% Triton X-100. The lysates were centrifuged to collect the supernatant, and protein concentrations were determined as previously described to ensure equal total protein loading across all samples. The prepared samples were stored at −20 °C until further analysis. Different assay buffers were prepared for diluting samples and measuring the activities of specific NSPs: a buffer containing 50 mM Tris and 750 mM NaCl (pH 7.4) was used for NE and PR3; a buffer containing 50 mM Tris, 750 mM NaCl, 5 mM EDTA (pH 7.4) was used for Cat G; and a buffer containing 25 mM MES, 50 mM NaCl, 5 mM DTT (pH 6.0) was used for CTSC. […]

Cat G [3] = test: Stability (protein level) of NSPs in U937 cells, Western blot, Cat G; format: cell-based, human; details: U937, 10 μM
Protocol: The Western blot experiments in this study were performed as described below. Cells in the logarithmic growth phase were collected in appropriate numbers according to different experimental purposes. After being thoroughly washed with phosphate-buffered saline and centrifuged, the cell pellets were resuspended in phosphate-buffered saline to obtain single-cell suspensions. Cells were fully lysed using RIPA buffer (Beyotime, P0013B) supplemented with EDTA-free protease and phosphatase inhibitor (Abcam, ab201120). Total cellular protein solutions were obtained after centrifugation to remove cell debris. The isolated proteins were quantified using the BeyoBCA protein assay kit (Beyotime, P0399M) following the operational protocol. The quantified protein samples were thoroughly mixed with protein loading buffer, boiled on a dry bath for 5 min, and then cooled to room temperature for Western blot analysis. […] Finally, enhanced chemiluminescent horseradish peroxidase substrate (Tanon Science & Technology Co., Ltd., Shanghai, China, 180-506) was used to visualize protein bands on a ChemiDoc XRS system (Bio-Rad Laboratories, Inc., Hercules, CA, USA), and the protein bands were quantified using Image Lab analysis software (Version 6.1) (Bio-Rad). […]

CTSC = CTSC (Homo sapiens, UniProt P53634); test: CTSC activity in U937 cells after 5 days of treatment; format: cell-based; parameters: endogenous in cells; host or cells: U937; details: U937, 5 days, marrubiin and AZD7986 at the same concentration
Protocol: as §1

Dipeptidyl Peptidase 8, sequence (Q6V1X1 whole entry, species assumed): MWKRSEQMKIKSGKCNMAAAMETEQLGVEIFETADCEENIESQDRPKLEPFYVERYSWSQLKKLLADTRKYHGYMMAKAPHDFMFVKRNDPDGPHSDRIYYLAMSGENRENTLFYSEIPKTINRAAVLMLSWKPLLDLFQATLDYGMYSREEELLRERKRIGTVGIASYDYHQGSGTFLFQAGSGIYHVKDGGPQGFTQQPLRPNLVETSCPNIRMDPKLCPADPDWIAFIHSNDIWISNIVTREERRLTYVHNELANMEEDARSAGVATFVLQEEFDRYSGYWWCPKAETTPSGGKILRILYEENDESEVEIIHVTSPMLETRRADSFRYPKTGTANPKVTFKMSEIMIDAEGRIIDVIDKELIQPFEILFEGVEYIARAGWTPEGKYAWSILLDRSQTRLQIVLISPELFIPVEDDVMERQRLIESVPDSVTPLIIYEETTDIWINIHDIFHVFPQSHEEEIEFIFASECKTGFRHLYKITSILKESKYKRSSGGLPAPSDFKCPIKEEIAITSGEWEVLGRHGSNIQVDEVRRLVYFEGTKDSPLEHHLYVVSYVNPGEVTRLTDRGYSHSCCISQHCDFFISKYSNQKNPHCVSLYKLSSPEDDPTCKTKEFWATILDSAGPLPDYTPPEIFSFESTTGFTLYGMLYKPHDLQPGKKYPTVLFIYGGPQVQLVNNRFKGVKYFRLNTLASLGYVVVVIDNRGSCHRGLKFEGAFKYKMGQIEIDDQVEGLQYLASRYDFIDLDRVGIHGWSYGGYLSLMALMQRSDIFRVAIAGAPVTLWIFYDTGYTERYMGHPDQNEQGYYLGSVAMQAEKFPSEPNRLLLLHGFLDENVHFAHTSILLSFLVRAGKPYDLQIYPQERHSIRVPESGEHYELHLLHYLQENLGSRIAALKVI
CTSC, sequence (P53634 25-463): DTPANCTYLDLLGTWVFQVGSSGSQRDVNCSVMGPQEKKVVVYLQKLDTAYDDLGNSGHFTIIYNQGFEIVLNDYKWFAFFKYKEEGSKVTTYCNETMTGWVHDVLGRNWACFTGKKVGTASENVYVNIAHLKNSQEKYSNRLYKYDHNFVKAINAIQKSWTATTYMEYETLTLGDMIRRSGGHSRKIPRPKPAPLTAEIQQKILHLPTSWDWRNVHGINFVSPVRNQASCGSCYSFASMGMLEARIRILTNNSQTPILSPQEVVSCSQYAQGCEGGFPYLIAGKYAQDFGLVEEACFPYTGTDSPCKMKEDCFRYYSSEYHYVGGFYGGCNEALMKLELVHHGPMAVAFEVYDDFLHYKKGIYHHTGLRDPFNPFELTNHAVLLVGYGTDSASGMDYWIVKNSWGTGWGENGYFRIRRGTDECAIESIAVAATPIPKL

C[C@@H]1C[C@H]2OC(=O)[C@@]3(C)CCC[C@@](C)([C@@H]23)[C@@]1(O)CCc1ccoc1 [Marrubiin, marrubiin]
IC50 at 24 h [1]: > 10 µM | IC50 (Dipeptidyl Peptidase 8): > 10 µM | Cat G activity, % of DMSO group (Cat G [2]): 16.9% | Cat G protein level, % of original level (Cat G [3]; 96 h): 30.2% | Cat G protein level, % of original level (Cat G [3]; 5 days): 12.3% | residual CTSC activity (CTSC): less than 8%
